Assays:
primary astrocytes = assay: MTT mitochondrial activity assay in primary astrocytes; format: cell-based, mouse; settings: different concentrations, after 1.5 h or 24 h
Method: Primary cultures of cerebrocortical astrocytes were obtained from 1 to 2-day-old OF1 mouse pups (Charles River Laboratories). Briefly, cortices were isolated and minced in small pieces under a dissecting microscope. The cells were incubated for 30 min at 37° C. in a solution containing 20 U/ml papain, 1 mM L-cysteine and 10 kU/ml DNase I. After dissociation, papain activity was stopped by the addition of fetal calf serum (FCS). Single-cell suspension was then obtained by mechanical dissociation, which consisted in cells trituration in a DMEM D7777 medium supplemented with 44 mm NaHCO3, 10 ml/L antibiotic/antimycotic solution and 10% FCS. The cells were seeded at an average density of ˜10′000 cells/cm^2 on poly-D-lysine coated 96- or 12-well culture plates, depending on their use, and grown in DMEM D7777 medium supplemented with 44 mm NaHCO3, 10 ml/L antibiotic/antimycotic solution and 10% FCS at 37° C. in a humidified atmosphere containing 5% CO2/95% air. Culture medium was renewed twice a week. Cells were stimulated and harvested between DIV14 and DIV17, when confluence and cell growth were optimal.
To monitor mitochondrial activity in astrocytes, which is linked to the metabolic process of glycolysis and production of lactate, astrocytes in 96-well plates were stimulated for 24 h (37° C. 5% CO2/95% air) with the compounds of the invention ranging from 10 nM to 10 μM.
After stimulation, 5 mg/ml thiazol blue tetrazolium bromide (MTT) in D5030 medium complemented with 5 mM D-glucose and 44 mM sodium bicarbonate (pH 7.2) was added to each well, and cells were incubated for 4 h at 37° C. (5% CO2). The medium was then removed and the amount of reduced MTT, i.e formazan, solubilized in DMSO (50 μl/well) was determined using a spectrophotometer (absorbance of 570 nm).
The mitochondrial activity was monitored in MTT colorimetric assay in primary astrocytes treated with Compounds (1), (2), (3), (4) (5), (9) and (10) at different concentrations after 1.5 h (FIG. 2 A, B, D, E, F, C, H, respectively) or 24 h (FIG. 2 H, I, K, L, M, J, N, respectively).

[1] = system: mice injected with streptozotocin; assay: Novel Object Recognition in streptozotocin ICV injection model of Alzheimer's disease; format: in vivo, mouse; settings: 1 day after training, vs Veh
Method: Craniotomies are performed on isoflurane-anesthetized mice for injections of Veh or streptozotocin in cerebral ventricles (coordinates: −0.5 mm (to bregma), lateral+/−1.0 mm (to midline), ventral −2.2 mm (to dura)) (Kelliny S. et al., Molecular Neurobiology, 2021). A solution composed of Veh (0.9% NaCl) or streptozotocin (5 mg/kg) prepared in 1 μl artificial cerebrospinal fluid solution (aCSF, 20 mM citrate buffer, pH 4.2) is injected in both cerebral ventricles using Hamilton micro syringe at a constant speed of 100-200 nl/min. After injection, skin of the skull is sutured, and mice is monitored closely and receives analgesic treatment for at least 4 days. After mice had fully recovered from surgery, memory tests including Morris Water Maze (MWM), Inhibitory Avoidance (IA) and Novel Object Recognition (NOR), as described below, are performed. […]
Novel object recognition (NOR) is a well-established protocol to evaluate recognition memory in rodent models. […] During the acquisition period, time spent exploring and number of contacts with each object are recorded. […] The time of exploration and number of contacts with each object are recorded. The activity is recorded automatically using automated tracking software (Ethovision).

GLUT1-DS transgenic mice = assay: Lactate and glucose biosensors in GLUT1-DS transgenic mice; format: in vivo, mouse; settings: oral 10 mg/kg, vs vehicle
Excerpt: Heterozygous transgenic mice on 129/SvJ genetic background in which glucose transporter 1 (GLUT1) has been knocked down were used (GLUT1(+/−)) (Wang et al., 2016, Human Molecular Genetics, 15(7)). GLUT1-deficiency syndrome (GLUT1-DS) is a prototypic hypometabolic diseases caused by the mutation of GLUT1 and decreased levels of glucose and lactate in the brain (Tang et al., 2019, Annals of Clinical and Translational Neurology 6(9)). Mating colonies were composed of wild-type female mice and GLUT1-DS male mice, or GLUT1-DS female mice and wild-type male mice. F1 pups were genotyped after ear punching at weaning using PCR to determine genotype. Mice of 2 to 3 months of age were used.
Cerebral extracellular levels of lactate and glucose were monitored in vivo in GLUT1-DS transgenic male mice and wild-type (WT) male littermates using lactate and glucose biosensors (Pinnacle Technology), according to the manufacturer's instructions. […] After surgery, mice were monitored closely and received analgesic treatment for at least 4 days. After mice had fully recovered from surgery, compounds of the invention or vehicle were administered per os as previously described and cerebral levels of extracellular lactate or glucose were dynamically recorded for 6 hours using lactate or glucose biosensors, respectively. […]

COc1cc2ccnc(Nc3ccc(S(C)(=O)=O)cc3)c2cc1OC [Compound 2, 6,7-dimethoxy-N-(4-methylsulfonylphenyl)isoquinolin-1-amine]
mitochondrial activity (MTT colorimetric assay) (primary astrocytes): none of the selected compounds had direct effect on mitochondrial activity | memory in the Novel object recognition ([1]; 10 mg/kg): significantly higher | memory in the Novel object recognition ([1]; 30 mg/kg): significantly higher | extracellular glucose levels in the brain (GLUT1-DS transgenic mice): significantly increases | extracellular lactate levels in the brain (GLUT1-DS transgenic mice): significantly increases extracellular lactate
